Experimental data as given in patent US20080234266A1, “Squaric Acid Derivatives II” (priority 2005, published 2008).

Biological target: T1, CHK1 kinase (Homo sapiens, UniProt O14757)
T1 construct: glutathione S-transferase (GST); made in house; host or cells: Sf21 insect cells (S. frugiperda), baculovirus
T1 sequence (O14757 1-476): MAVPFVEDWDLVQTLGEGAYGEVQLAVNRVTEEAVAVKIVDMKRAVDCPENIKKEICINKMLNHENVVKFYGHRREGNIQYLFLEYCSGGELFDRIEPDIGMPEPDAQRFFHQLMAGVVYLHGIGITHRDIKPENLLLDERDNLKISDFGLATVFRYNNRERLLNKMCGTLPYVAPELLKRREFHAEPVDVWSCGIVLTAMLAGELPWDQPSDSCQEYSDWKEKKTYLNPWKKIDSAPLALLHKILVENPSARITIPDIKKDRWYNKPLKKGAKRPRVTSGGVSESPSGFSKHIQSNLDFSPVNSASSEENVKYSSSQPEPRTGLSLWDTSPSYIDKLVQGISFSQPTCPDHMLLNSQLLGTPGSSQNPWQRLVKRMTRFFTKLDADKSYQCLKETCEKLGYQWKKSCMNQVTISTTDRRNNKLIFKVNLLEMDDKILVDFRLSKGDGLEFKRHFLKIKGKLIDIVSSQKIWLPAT
Test: Flashplate method (CHK1), measurement of the CHK1 kinase activity
Type: biochemical
Conditions: class symbols; 'Affinity to receptors'
In short: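 GST-tagged CHK1 expressed in Sf21 insect cells, incubated at 30 °C with biotinylated CHKtide (0.15 μg per well) and γ33P-ATP in pH 7.5 buffer (EGTA, Mg acetate, mercaptoethanol, 0.1% BSA). Stopped with EDTA, captured on streptavidin Flashplates and counted by scintillation. IC50 set against uninhibited reaction and 0.1 μM staurosporine as zero.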

| IC50 | SMILES |
| --- | --- |
| > 1000 nM | CCN(CC)c1c(Nc2c(NCc3cccc(O)c3)c(=O)c2=O)cc(C(F)(F)F)c2[nH]cnc12 [Compound A124, 3-(4-diethylamino-7-trifluoromethyl-1H-benzimidazol-5-ylamino)-4-(3-hydroxy-benzylamino)cyclobut-3-ene-1,2-dione] |
| > 1000 nM | O=c1c(NCc2cccc(B(O)O)c2)c(Nc2ccc3[nH]cnc3c2)c1=O [Compound A125, 3-{[2-(1H-benzimidazol-5-ylamino)-3,4-dioxo-cyclobut-1-enylamino]methyl}phenylboronic acid] |
| > 1000 nM | Cc1cc2[nH]cnc2cc1Nc1c(NCc2cccc(O)c2)c(=O)c1=O [Compound A126, 3-(3-hydroxybenzylamino)-4-(6-methyl-1H-benzimidazol-5-ylamino)cyclobut-3-ene-1,2-dione] |
| > 1000 nM | CC(=O)c1cccc(CNc2c(Nc3ccc4[nH]cnc4c3)c(=O)c2=O)c1 [Compound A127, 3-(1H-benzimidazol-5-ylamino)-4-(3-acetyl-benzylamino)cyclobut-3-ene-1,2-dione] |
| > 1000 nM | COC(=O)Nc1cccc(CNc2c(Nc3ccc4[nH]cnc4c3)c(=O)c2=O)c1 [Compound A128, 3-(1H-benzimidazol-5-ylamino)-4-(3-methoxycarbonylaminobenzylamino)-cyclobut-3-ene-1,2-dione] |
| > 1000 nM | O=c1c(NCc2cccc(O)c2)c(Nc2cc3nc[nH]c3cc2F)c1=O [Compound A129, 3-(6-fluoro-1H-benzimidazol-5-ylamino)-4-(3-hydroxybenzylamino)cyclobut-3-ene-1,2-dione] |
| > 1000 nM | O=C(O)c1cccc(CNc2c(Nc3ccc4[nH]cnc4c3)c(=O)c2=O)c1 [Compound A130, 3-(1H-benzimidazol-5-ylamino)-4-(3-carboxy-benzylamino)cyclobut-3-ene-1,2-dione] |
| > 1000 nM | CS(=O)(=O)c1cccc(CNc2c(Nc3ccc4[nH]cnc4c3)c(=O)c2=O)c1 [Compound A131, 3-(1H-benzimidazol-5-ylamino)-4-(3-methyl-sulfonylbenzylamino)cyclobut-3-ene-1,2-dione] |
| > 1000 nM | CS(=O)(=O)Oc1cccc(CNc2c(Nc3ccc4[nH]cnc4c3)c(=O)c2=O)c1 [Compound A132, 3-(1H-benzimidazol-5-ylamino)-4-(3-methyl-sulfonyloxybenzylamino)cyclobut-3-ene-1,2-dione] |
| > 1000 nM | O=c1c(NCc2cccc(OS(=O)(=O)C(F)(F)F)c2)c(Nc2ccc3[nH]cnc3c2)c1=O [Compound A133, 3-(1H-benzimidazol-5-ylamino)-4-(3-trifluoro-methylsulfonyloxybenzylamino)cyclobut-3-ene-1,2-dione] |
| > 1000 nM | O=CNc1cccc(CNc2c(Nc3ccc4[nH]cnc4c3)c(=O)c2=O)c1 [Compound A134, 3-(1H-benzimidazol-5-ylamino)-4-(3-formyl-aminobenzylamino)cyclobut-3-ene-1,2-dione] |
| > 1000 nM | O=c1c(NCc2cccc3[nH]ccc23)c(Nc2ccc3[nH]cnc3c2)c1=O [Compound A135, 3-(1H-benzimidazol-5-ylamino)-4-[(1H-indol-4-ylmethyl)amino]cyclobut-3-ene-1,2-dione] |
| > 1000 nM | O=c1c(NCc2cc(O)ccc2F)c(Nc2ccc3[nH]cnc3c2)c1=O [Compound A136, 3-(1H-benzimidazol-5-ylamino)-4-(2-fluoro-5-hydroxybenzylamino)cyclobut-3-ene-1,2-dione] |
| > 1000 nM | O=c1c(NCc2ccc3cc[nH]c3c2)c(Nc2ccc3[nH]cnc3c2)c1=O [Compound A137, 3-(1H-benzimidazol-5-ylamino)-4-[(1H-indol-6-ylmethyl)amino]cyclobut-3-ene-1,2-dione] |

The next lines start with the compound.

| SMILES | IC50 |
| --- | --- |
| CS(=O)(=O)NCCOc1cccc(CNc2c(Nc3ccc4[nH]cnc4c3)c(=O)c2=O)c1 [Compound A110, 3-(1H-benzimidazol-5-ylamino)-4-[3-(2-methylsulfonylaminoethoxy)benzylamino]-cyclobut-3-ene-1,2-dione] | > 1000 nM |
| CCCCc1c(Nc2c(NCc3cccc(O)c3)c(=O)c2=O)ccc2[nH]cnc12 [Compound A111, 3-(4-butyl-1H-benzimidazol-5-ylamino)-4-(3-hydroxybenzylamino)cyclobut-3-ene-1,2-dione] | > 1000 nM |
| O=C(CC(Nc1c(Nc2ccc3[nH]cnc3c2)c(=O)c1=O)c1cccc(O)c1)N1CCNCC1 (stereo not drawn) [Compound A112, 3-(1H-benzimidazol-5-ylamino)-4-[1-(3-hydroxyphenyl)-3-oxo-3-piperazin-1-ylpropyl-amino]cyclobut-3-ene-1,2-dione] | < 1000 nM |
| CN(C)CCNC(=O)CC(Nc1c(Nc2ccc3[nH]cnc3c2)c(=O)c1=O)c1cccc(O)c1 (stereo not drawn) [Compound A113, 3-[2-(1H-benzimidazol-5-ylamino)-3,4-dioxo-cyclobut-1-enylamino]-N-(2-dimethylamino-ethyl)-3-(3-hydroxyphenyl)propionamide] | > 1000 nM |
| CC[C@@H](Nc1c(Nc2ccc3[nH]cnc3c2)c(=O)c1=O)c1cccc(OC)c1 [Compound A114, 3-(1H-benzimidazol-5-ylamino)-4-[(R)-1-(3-methoxyphenyl)propylamino]cyclobut-3-ene-1,2-dione] | > 1000 nM |
| CC[C@H](Nc1c(Nc2ccc3[nH]cnc3c2)c(=O)c1=O)c1cccc(OC)c1 [Compound A115, 3-(1H-benzimidazol-5-ylamino)-4-[(S)-1-(3-methoxyphenyl)propylamino]cyclobut-3-ene-1,2-dione] | > 1000 nM |
| COc1cccc(CNc2c(Nc3ccc4[nH]cnc4c3)c(=O)c2=O)c1 [Compound A116, 3-(1H-benzimidazol-5-ylamino)-4-(3-methoxybenzylamino)cyclobut-3-ene-1,2-dione] | < 1000 nM |
| COCCNC(=O)CC(Nc1c(Nc2ccc3[nH]cnc3c2)c(=O)c1=O)c1cccc(O)c1 (stereo not drawn) [Compound A117, 3-[2-(1H-benzimidazol-5-ylamino)-3,4-dioxo-cyclobut-1-enylamino]-3-(3-hydroxyphenyl)-N-(2-methoxyethyl)propionamide] | > 1000 nM |
| O=c1c(NCc2cccc(O)c2)c(Nc2cc(Cl)c3[nH]cnc3c2)c1=O [Compound A118, 3-(7-chloro-1H-benzimidazol-5-ylamino)-4-(3-hydroxybenzylamino)cyclobut-3-ene-1,2-dione] | < 1000 nM |
| O=c1c(NCc2cccc(O)c2)c(Nc2ccc3scnc3c2)c1=O [Compound A119, 3-(benzothiazol-5-ylamino)-4-(3-hydroxy-benzylamino)cyclobut-3-ene-1,2-dione] | > 1000 nM |
| CC[C@@H](Nc1c(Nc2ccc3[nH]cnc3c2)c(=O)c1=O)c1cccc(O)c1 [Compound A120, 3-(1H-benzimidazol-5-ylamino)-4-[(R)-1-(3-hydroxyphenyl)propylamino]cyclobut-3-ene-1,2-dione] | < 1000 nM |
| COc1cccc(CNc2c(Nc3ccc4ncsc4c3)c(=O)c2=O)c1 [Compound A122, 3-(benzothiazol-6-ylamino)-4-(3-methoxy-benzylamino)cyclobut-3-ene-1,2-dione] | > 1000 nM |
| O=c1c(NCc2ccc3c(c2)OCO3)c(Nc2ccc3[nH]cnc3c2)c1=O [Compound A123, 3-[(benzo[1,3]dioxol-5-ylmethyl)amino]-4-(1H-benzimidazol-5-ylamino)cyclobut-3-ene-1,2-dione] | > 1000 nM |
